# Test results as given in patent US20100210535A1, “[…] USE OF NE[…] AND ACTH 7-38 AND COMPOSITIONS THEREOF” (priority 2007, published 2010).
# Where no end group is shown, it is not given here.
# Legend:
# [1] = system: Primary Human endothelial cells (HUVEC); assay: Endothelial cell migration assay; format: cell-based; details: 10 micrograms per ml, 22 hours, combination peptide 1:peptide 2 0.95 mole:1.05 mole
# Experimental: Thereafter, designated concentration of testing peptides—10 micrograms per ml—was added in duplicate wells.
# [2] = system: hepatitis B virus (HBV) ayw strain; assay: HBV experimental assay system, HepG2-2.2.15, secreted HBV DNA by TaqMan PCR; format: cell-based; details: 10 micrograms per ml, HepG2-2.2.15 cells, six days
# [3] = system: spleen cells; assay: Th1/Th2 cytokine profiling assay (Ovalbumin-restimulated spleen cells, CBA kit); format: cell-based, Balb/c mice; details: 10 micrograms per ml; Ovalbumin restimulation; 72 hours
# From the text: The Balb/c mice (originated in 1923, it is a popular strain and is used in many different research disciplines. Also classified as an inbred from the production of 20 or more successive brother-sister matings, the Balb/c mouse is albino and small in size) were immunized on Days 1, 15, and 29 with Ovalbumin (Ovalbumin is the main protein found in egg white, commonly used to stimulate an immunological reaction in test animals) in PBS (5 micrograms/injection). On day 50, spleens of the mice were harvested (3 weeks after last boost with Ovalbumin). Cells were cultured (2×10^5/well in triplicate) and incubated with culture medium or test peptides—10 micrograms per ml—for 30 min. Thereafter, additional Ovalbumin was added to the cells at 10 micrograms/ml for in vitro restimulation of the cells. 72 hours later, cell supernatants were harvested and assayed using the Becton Dickinson Mouse Th1/Th2 Cytokine CBA Kit.
# [4] = system: HCMV strain AD169; assay: HCMV plaque formation assay in MRC-5 cells; format: cell-based; details: 10 micrograms per ml, 7-10 days
# From the text: Ganciclovir was used as positive control.
# [5] = system: HUVEC; assay: Endothelial tube formation assay; format: cell-based, human; details: 10 micrograms per ml, 20 hours, combination peptide 1:peptide 2 1.10 mole:0.90 mole
# Experimental: The endothelial tube formation assay is based on the ability of endothelial cells to form three-dimensional capillary-like tubular structures when cultured on a gel of basement membrane extract. The endothelial tube formation assay represents a powerful model for studying inhibition and induction of angiogenesis. Pre-labeled HUVEC with Calcein AM were seeded in a 96-well culture plate coated with extracellular metrix (Chemicon international Cat. ECM625) and treated with test peptides—10 micrograms per ml—in full growth medium. Positive control was vehicle only. The endothelial cells were allowed to form tubes foe 20 hours and were then examined under an inverted fluorescent microscope. Duplicate wells for each treatment were photographed and quantitatively analyzed for an average tubule length using image analysis software ImageProPlus. Raw data were expressed as average tubule lengths in pixels±standard deviation. Statistic p values were computed using the Student's t-test.
Substance,inhibition of the migration of human endothelial cells [1],inhibition of HBV replication as compared to the virus control infection [2],IFNγ spleen cells; TH1 response (% of control) [3],IL-2 spleen cells (% of control) [3],IL-4 spleen cells; TH2 response (% of control) [3],IL-5 spleen cells; TH2 response (% of control) [3],TNF-a spleen cells; TH1 response (% of control) [3],inhibition of HCMV plaque formation as compared to the virus control experiment [4],inhibition of the tube formation of human endothelial cells [5]
Glu-Ile-Gly-Asp-Glu-Glu-Asn-Ser-Ala-Lys-Phe-Pro-Ile-NH2 (EIGDEENSAKFPI-NH2) [Peptide 1],53%,no effect,149.4 % of control,212.4 % of control,163.3 % of control,115.8 % of control,155.5 % of control,5.8%,
Phe-Arg-Trp-Gly-Lys-Pro-Val-Gly-Lys-Lys-Arg-Arg-Pro-Val-Lys-Val-Tyr-Pro-Asn-Gly-Ala-Glu-Asp-Glu-Ser-Ala-Glu-Ala-Phe-Pro-Leu-Glu-OH (FRWGKPVGKKRRPVKVYPNGAEDESAEAFPLE-OH) [Peptide 2],41%,8.4%,113.7 % of control,137.1 % of control,0.0 % of control,106.3 % of control,138.0 % of control,does not inhibit,did not inhibit
